According to patent US20110217280A1, “METHODS FOR TREATING NEUROPSYCHIATRIC CONDITIONS” (priority 2007, published 2011):

How the values were obtained:
PAK1 = PAK1 (Homo sapiens, UniProt Q13153); conditions: independent of GTPase activators such as Cdc42 or Rac; cited from earlier work
[1] = tested on: double transgenic GFP-M/DN-DISC1 mice; experiment: In vivo monitoring of dendritic spine plasticity by two photon laser scanning microscopy; conditions: 1 mg/kg i.p. once per day, imaging P40 to P70
Description: In the following experiment, dendritic spine plasticity is directly monitored in vivo by two photon laser scanning microscopy (TPLSM) in double transgenic GFP-M/DN-DISC1 mice treated with a PAK activator or a placebo. Mice (C57BL/6) expressing GFP in a subset of cortical layer 5 neurons (transgenic line GFP-M described in Feng et al., 2000, Neuron 28:41-51) are crossed with DN-DISC1 C57BL/6 DN-DISC1 mice (Hikida et al (2007), Proc Natl Acad Sci USA, 104(36):14501-14506) to obtain heterozygous transgenic mice, which are then crossed to obtain homozygous double transgenic GFPM/DN-DISC1 mice used in this study.
GFP-M/DN-DISC1 animals aged 28-61 days are anesthetized using avertin ([…]; Sigma, St. Louis, Mo.). The skull is exposed, scrubbed, and cleaned with ethanol. […]
For in vivo two photon imaging, a two-photon laser scanning microscope is used as described in Majewska et al, (2000), Pflügers Arch, 441:398-408. […] Fluorescence is detected using photomultiplier tubes (HC125-02; Hamamatsu, Shizouka, Japan) in whole-field detection mode. The craniotomy over the visual cortex is initially identified under whole-field fluorescence illumination, and areas with superficial dendrites are identified using a 20×, 0.95 numerical aperture lens (IR2; Olympus Optical). […]

Chain of PAK1 (Q13153 whole entry): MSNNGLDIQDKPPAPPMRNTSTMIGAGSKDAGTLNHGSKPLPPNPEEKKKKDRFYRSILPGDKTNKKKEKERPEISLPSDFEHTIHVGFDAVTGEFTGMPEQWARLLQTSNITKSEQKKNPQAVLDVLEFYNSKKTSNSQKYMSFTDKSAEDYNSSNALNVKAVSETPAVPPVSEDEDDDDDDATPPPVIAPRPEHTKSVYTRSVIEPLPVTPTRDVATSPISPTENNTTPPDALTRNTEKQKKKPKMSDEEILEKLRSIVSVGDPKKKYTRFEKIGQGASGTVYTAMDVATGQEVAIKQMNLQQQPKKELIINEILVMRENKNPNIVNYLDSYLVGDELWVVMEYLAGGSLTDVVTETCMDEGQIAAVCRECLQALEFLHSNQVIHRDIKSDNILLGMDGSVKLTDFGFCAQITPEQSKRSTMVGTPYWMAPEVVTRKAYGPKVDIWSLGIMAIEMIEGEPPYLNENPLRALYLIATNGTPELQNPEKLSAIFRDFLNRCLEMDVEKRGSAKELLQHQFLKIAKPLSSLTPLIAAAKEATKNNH

Structure (SMILES): CCCCCCCCCCCCCC=CC(O)C(N)CO (stereo not drawn) [sphingosine, 2-amino-4-octadecene-1,3-diol]
- activation of PAK1 (PAK1): activate PAK1 independently of GTPase activators
- spine density relative to untreated control animals [1]: increased spine density
- spine turnover relative to untreated control animals [1]: reduced spine turnover
